Reference: patent US20260001928A1 (CORTERIA PHARMACEUTICALS, priority 2022, published 2026)
*1 amine or outer side, *2 acyl side, *3 side chain or, on linkers, in order; H or OH if unused. Where a SMILES comes first, the peptide text is derived from it. Side-chain parts run from the residue outwards. [ ]: non-standard residue; d: D form. The star is where a group is joined. C16 diacid = O=C(O)CCCCCCCCCCCCCCC(=O)*; γGlu = O=C(O)[C@H](CCC(=O)[*:2])N[*:1]; αMeL = CC(C)C[C@](C)(N)C(=O)O; Pentanoyl = CCCCC(=O)*; AEEA = NCCOCCOCC(=O)O; Aib = CC(C)(N)C(=O)O

Assays:
[1] = biological target: T1, human CRF2a receptor (Homo sapiens, UniProt Q13324); experiment: Activity at human CRF2a receptor, cAMP functional assay in TeloHEAC cells; type: cell-based; conditions: TeloHEAC cells stably expressing human CRF2a receptor, relative to urocortin 2 (100 nM = 100%)
T1 construct: expressed in transfected cells; host or cells: TeloHEAC cells
T1 sequence (Q13324 1-411): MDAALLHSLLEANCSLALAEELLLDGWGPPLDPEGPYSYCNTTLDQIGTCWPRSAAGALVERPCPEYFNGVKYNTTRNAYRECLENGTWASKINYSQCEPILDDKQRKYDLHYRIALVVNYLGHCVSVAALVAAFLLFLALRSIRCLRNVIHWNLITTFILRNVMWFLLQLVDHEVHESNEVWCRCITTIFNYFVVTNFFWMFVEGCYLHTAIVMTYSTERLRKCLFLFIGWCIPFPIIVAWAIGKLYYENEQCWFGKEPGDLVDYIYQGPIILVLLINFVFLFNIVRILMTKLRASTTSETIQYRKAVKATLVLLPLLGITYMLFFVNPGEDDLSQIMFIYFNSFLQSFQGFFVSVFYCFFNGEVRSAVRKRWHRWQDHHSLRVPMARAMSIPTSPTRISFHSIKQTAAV
Summary of the method: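 cAMP accumulation was measured by HTRF 665/620 nm ratio after 30 min at 37° C compound exposure (16 twofold dilutions) of CRF2a-expressing TeloHEAC cells, 10000/well, in HEPES-buffered HBSS plus IBMX. Activity was normalised to urocortin 2 at 100 nM (100%), and EC50 was the concentration giving half-maximal activation.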

[2] = biological target: T2, CFR1R receptor (Homo sapiens, UniProt P34998); experiment: Activity at anti-target CFR1R receptor, cAMP assay in CRF1R-overexpression CHO-K1 cells; type: cell-based; conditions: 100% = Sauvagine at 100 nM; for EC50: cAMP
T2 construct: host or cells: CHO-K1 (clone 2)
T2 sequence (P34998 24-415): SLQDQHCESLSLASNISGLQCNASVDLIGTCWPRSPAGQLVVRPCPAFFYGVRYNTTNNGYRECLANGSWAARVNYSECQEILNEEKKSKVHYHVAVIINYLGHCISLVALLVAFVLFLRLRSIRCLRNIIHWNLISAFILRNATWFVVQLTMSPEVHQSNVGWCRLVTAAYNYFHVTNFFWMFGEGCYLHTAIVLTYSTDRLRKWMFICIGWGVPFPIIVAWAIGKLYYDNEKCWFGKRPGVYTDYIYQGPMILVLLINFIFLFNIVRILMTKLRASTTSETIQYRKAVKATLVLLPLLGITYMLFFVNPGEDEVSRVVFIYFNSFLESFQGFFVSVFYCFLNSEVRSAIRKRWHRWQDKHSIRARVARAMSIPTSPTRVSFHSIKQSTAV
Summary of the method: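 cAMP readout in CRF1R-overexpressing CHO-K1 cells (clone 2), run as for the TeloHAEC assay at 4000 cells/well final. Cells came from cryopreserved banks. Sauvagine at 100 nM defined 100% activation.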

Compound | EC50 [1] | Emax (% I) [2] | EC50 [2]
CC[C@H](C)[C@H](NC(C)=O)C(=O)N[C@H](C(=O)N[C@@H](CC(C)C)C(=O)N[C@@H](CO)C(=O)N[C@@H](CC(C)C)C(=O)N[C@@H](CC(=O)O)C(=O)N[C@@H](C(=O)N1CCC[C@H]1C(=O)N[C@H](C(=O)N[C@@H](CCCCN)C(=O)N[C@@H](CC(C)C)C(=O)N[C@@H](CCCCNC(=O)CC[C@H](NC(=O)CC[C@H](NC(=O)CCCCCCCCCCCCCCC(=O)O)C(=O)O)C(=O)O)C(=O)N[C@@H](CCCCN)C(=O)N[C@H](C(=O)N[C@@H](CC(C)C)C(=O)N[C@@H](CC(C)C)C(=O)N[C@@H](CCC(=O)O)C(=O)N[C@@H](CCC(N)=O)C(=O)N[C@@H](CCC(=O)O)C(=O)N[C@@H](CCCCN)C(=O)N[C@@H](CCC(N)=O)C(=O)N[C@@H](CCCCN)C(=O)N[C@@H](CCCCN)C(=O)N[C@@H](CCC(N)=O)C(=O)N[C@@H](CCCNC(=N)N)C(=O)N[C@@H](CCC(=O)O)C(=O)N[C@@H](CCC(N)=O)C(=O)N[C@@H](C)C(=O)N[C@@H](CCC(=O)O)C(=O)N[C@H](C(=O)N[C@@H](CC(N)=O)C(=O)NC(C)(C)C(=O)N[C@@H](CCC(N)=O)C(=O)N[C@H](C(=O)N[C@@H](CC(C)C)C(=O)N[C@@H](C)C(=O)N[C@@H](CCC(N)=O)C(=O)N[C@H](C(N)=O)C(C)C)[C@@H](C)CC)[C@@H](C)O)[C@@H](C)CC)[C@@H](C)CC)C(C)C)C(C)C [compound 41] (Ac-IVLSLD[dV]PIKLK([γGlu-γGlu-C16 diacid])KILLEQEKQKKQREQAETN[Aib]QILAQV-NH2) | 1.85 nM | 7 % I | > 250 nM
CC[C@H](C)[C@H](NC(C)=O)C(=O)N[C@H](C(=O)N[C@@H](CC(C)C)C(=O)N[C@@H](CO)C(=O)N[C@@H](CC(C)C)C(=O)N[C@@H](CC(=O)O)C(=O)N[C@@H](C(=O)N1CCC[C@H]1C(=O)N[C@H](C(=O)N[C@@H](CCCCN)C(=O)N[C@@H](CC(C)C)C(=O)N[C@@H](CCCCNC(=O)COCCOCCNC(=O)COCCOCCNC(=O)CC[C@H](NC(=O)CCCCCCCCCCCCCCC(=O)O)C(=O)O)C(=O)N[C@@H](CCCCN)C(=O)N[C@H](C(=O)N[C@@H](CC(C)C)C(=O)N[C@@H](CC(C)C)C(=O)N[C@@H](CCC(=O)O)C(=O)N[C@@H](CCC(N)=O)C(=O)N[C@@H](CCC(=O)O)C(=O)N[C@@H](CCCCN)C(=O)N[C@@H](CCC(N)=O)C(=O)N[C@@H](CCCCN)C(=O)N[C@@H](CCCCN)C(=O)N[C@@H](CCC(N)=O)C(=O)N[C@@H](CCCNC(=N)N)C(=O)N[C@@H](CCC(=O)O)C(=O)N[C@@H](CCC(N)=O)C(=O)N[C@@H](C)C(=O)N[C@@H](CCC(=O)O)C(=O)N[C@H](C(=O)N[C@@H](CC(N)=O)C(=O)NC(C)(C)C(=O)N[C@@H](CCC(N)=O)C(=O)N[C@H](C(=O)N[C@@H](CC(C)C)C(=O)N[C@@H](C)C(=O)N[C@@H](CCC(N)=O)C(=O)N[C@H](C(N)=O)C(C)C)[C@@H](C)CC)[C@@H](C)O)[C@@H](C)CC)[C@@H](C)CC)C(C)C)C(C)C [compound 42] (Ac-IVLSLD[dV]PIKLK([AEEA-AEEA-γGlu-C16 diacid])KILLEQEKQKKQREQAETN[Aib]QILAQV-NH2) | 3.08 nM | 1 % I | > 250 nM

These reach a lower EC50 [1]. Values come first.

EC50 [1] | Emax (% I) [2] | EC50 [2] | Compound
0.13 nM | 22 % I | > 250 nM | CCCCC(=O)N[C@H](C(=O)N[C@@H](CC(C)C)C(=O)N[C@@H](CO)C(=O)N[C@@H](CC(C)C)C(=O)N[C@@H](CC(=O)O)C(=O)N[C@@H](C(=O)N1CCC[C@H]1C(=O)N[C@H](C(=O)N[C@@H](CCCCN)C(=O)N[C@@H](CC(C)C)C(=O)N[C@@H](CCCCNC(=O)CC[C@H](NC(=O)CCCCCCCCCCCCCCC(=O)O)C(=O)O)C(=O)N[C@@H](CCCCN)C(=O)N[C@H](C(=O)N[C@@H](CC(C)C)C(=O)N[C@@H](CC(C)C)C(=O)N[C@@H](CCC(=O)O)C(=O)N[C@@H](CCC(N)=O)C(=O)N[C@@H](CCC(=O)O)C(=O)N[C@@H](CCCCN)C(=O)N[C@@H](CCC(N)=O)C(=O)N[C@@H](CCCCN)C(=O)N[C@@H](CCCCN)C(=O)N[C@@H](CCC(N)=O)C(=O)N[C@@H](CCCNC(=N)N)C(=O)N[C@@H](CCC(=O)O)C(=O)N[C@@H](CCC(N)=O)C(=O)N[C@@H](C)C(=O)N[C@@H](CCC(=O)O)C(=O)N[C@H](C(=O)N[C@@H](CC(N)=O)C(=O)N[C@@H](CCCCN)C(=O)N[C@@H](CCC(N)=O)C(=O)N[C@H](C(=O)N[C@@H](CC(C)C)C(=O)N[C@@H](C)C(=O)N[C@@H](CCC(N)=O)C(=O)N[C@H](C(N)=O)C(C)C)[C@@H](C)CC)[C@@H](C)O)[C@@H](C)CC)[C@@H](C)CC)C(C)C)C(C)C [compound 37] (Pentanoyl-VLSLD[dV]PIKLK([γGlu-C16 diacid])KILLEQEKQKKQREQAETNKQILAQV-NH2)
0.49 nM | 6 % I | > 250 nM | CC[C@H](C)[C@H](N)C(=O)N[C@H](C(=O)N[C@@H](CC(C)C)C(=O)N[C@@H](CO)C(=O)N[C@@H](CC(C)C)C(=O)N[C@@H](CC(=O)O)C(=O)N[C@H](C(=O)N1CCC[C@H]1C(=O)N[C@H](C(=O)N[C@@H](CCCCN)C(=O)N[C@@](C)(CC(C)C)C(=O)N[C@@H](CCCCNC(=O)CC[C@H](NC(=O)CCCCCCCCCCCCCCC(=O)O)C(=O)O)C(=O)N[C@@H](CCCCN)C(=O)N[C@H](C(=O)N[C@@H](CC(C)C)C(=O)N[C@@H](CC(C)C)C(=O)N[C@@H](CCC(=O)O)C(=O)N[C@@H](CCC(N)=O)C(=O)N[C@@H](CCC(=O)O)C(=O)N[C@@H](CCCCN)C(=O)N[C@@H](CCC(N)=O)C(=O)N[C@@H](CCCCN)C(=O)N[C@@H](CCCCN)C(=O)N[C@@H](CCC(N)=O)C(=O)N[C@@H](CCCNC(=N)N)C(=O)N[C@@H](CCC(=O)O)C(=O)N[C@@H](CCC(N)=O)C(=O)N[C@@H](C)C(=O)N[C@@H](CCC(=O)O)C(=O)N[C@H](C(=O)N[C@@H](CC(N)=O)C(=O)NC(C)(C)C(=O)N[C@@H](CCC(N)=O)C(=O)N[C@H](C(=O)N[C@@H](CC(C)C)C(=O)N[C@@H](C)C(=O)N[C@@H](CCC(N)=O)C(=O)N[C@H](C(N)=O)C(C)C)[C@@H](C)CC)[C@@H](C)O)[C@@H](C)CC)[C@@H](C)CC)C(C)C)C(C)C [compound 38] (H-IVLSLDVPIK[αMeL]K([γGlu-C16 diacid])KILLEQEKQKKQREQAETN[Aib]QILAQV-NH2)
0.53 nM | 2 % I | > 250 nM | CC[C@H](C)[C@H](NC(C)=O)C(=O)N[C@H](C(=O)N[C@@H](CC(C)C)C(=O)N[C@@H](CO)C(=O)N[C@@H](CC(C)C)C(=O)N[C@@H](CC(=O)O)C(=O)N[C@H](C(=O)N1CCC[C@H]1C(=O)N[C@H](C(=O)N[C@@H](CCCCN)C(=O)N[C@@H](CC(C)C)C(=O)N[C@@H](CCCCNC(=O)CC[C@H](NC(=O)CCCCCCCCCCCCCCC(=O)O)C(=O)O)C(=O)N[C@@H](CCCCN)C(=O)N[C@H](C(=O)N[C@@H](CC(C)C)C(=O)N[C@@H](CC(C)C)C(=O)N[C@@H](CCC(=O)O)C(=O)N[C@@H](CCC(N)=O)C(=O)N[C@@H](CCC(=O)O)C(=O)N[C@@H](CCCCN)C(=O)N[C@@H](CCC(N)=O)C(=O)N[C@@H](CCCCN)C(=O)N[C@@H](CCCCN)C(=O)N[C@@H](CCC(N)=O)C(=O)N[C@@H](CCCNC(=N)N)C(=O)N[C@@H](CCC(=O)O)C(=O)N[C@@H](CCC(N)=O)C(=O)N[C@@H](C)C(=O)N[C@@H](CCC(=O)O)C(=O)N[C@H](C(=O)N[C@@H](CC(N)=O)C(=O)NC(C)(C)C(=O)N[C@@H](CCC(N)=O)C(=O)N[C@H](C(=O)N[C@@H](CC(C)C)C(=O)N[C@@H](C)C(=O)N[C@@H](CCC(N)=O)C(=O)N[C@H](C(N)=O)C(C)C)[C@@H](C)CC)[C@@H](C)O)[C@@H](C)CC)[C@@H](C)CC)C(C)C)C(C)C [compound 39] (Ac-IVLSLDVPIKLK([γGlu-C16 diacid])KILLEQEKQKKQREQAETN[Aib]QILAQV-NH2)
